We go through 19 molecules from US10717716B2, “1,3,4-oxadiazole derivative compounds as histone deacetylase 6 inhibitor, and the pharmaceutical composition comprising the same” (Chong Kun Dang Pharmaceutical Corp., priority 2015, dated 2020).

For the experiment, the target named is T1, human recombinant HDAC6 (Homo sapiens, UniProt Q9UBN7).
T1 construct: purchased Calbiochem 382180
T1 sequence (Q9UBN7 1-1215): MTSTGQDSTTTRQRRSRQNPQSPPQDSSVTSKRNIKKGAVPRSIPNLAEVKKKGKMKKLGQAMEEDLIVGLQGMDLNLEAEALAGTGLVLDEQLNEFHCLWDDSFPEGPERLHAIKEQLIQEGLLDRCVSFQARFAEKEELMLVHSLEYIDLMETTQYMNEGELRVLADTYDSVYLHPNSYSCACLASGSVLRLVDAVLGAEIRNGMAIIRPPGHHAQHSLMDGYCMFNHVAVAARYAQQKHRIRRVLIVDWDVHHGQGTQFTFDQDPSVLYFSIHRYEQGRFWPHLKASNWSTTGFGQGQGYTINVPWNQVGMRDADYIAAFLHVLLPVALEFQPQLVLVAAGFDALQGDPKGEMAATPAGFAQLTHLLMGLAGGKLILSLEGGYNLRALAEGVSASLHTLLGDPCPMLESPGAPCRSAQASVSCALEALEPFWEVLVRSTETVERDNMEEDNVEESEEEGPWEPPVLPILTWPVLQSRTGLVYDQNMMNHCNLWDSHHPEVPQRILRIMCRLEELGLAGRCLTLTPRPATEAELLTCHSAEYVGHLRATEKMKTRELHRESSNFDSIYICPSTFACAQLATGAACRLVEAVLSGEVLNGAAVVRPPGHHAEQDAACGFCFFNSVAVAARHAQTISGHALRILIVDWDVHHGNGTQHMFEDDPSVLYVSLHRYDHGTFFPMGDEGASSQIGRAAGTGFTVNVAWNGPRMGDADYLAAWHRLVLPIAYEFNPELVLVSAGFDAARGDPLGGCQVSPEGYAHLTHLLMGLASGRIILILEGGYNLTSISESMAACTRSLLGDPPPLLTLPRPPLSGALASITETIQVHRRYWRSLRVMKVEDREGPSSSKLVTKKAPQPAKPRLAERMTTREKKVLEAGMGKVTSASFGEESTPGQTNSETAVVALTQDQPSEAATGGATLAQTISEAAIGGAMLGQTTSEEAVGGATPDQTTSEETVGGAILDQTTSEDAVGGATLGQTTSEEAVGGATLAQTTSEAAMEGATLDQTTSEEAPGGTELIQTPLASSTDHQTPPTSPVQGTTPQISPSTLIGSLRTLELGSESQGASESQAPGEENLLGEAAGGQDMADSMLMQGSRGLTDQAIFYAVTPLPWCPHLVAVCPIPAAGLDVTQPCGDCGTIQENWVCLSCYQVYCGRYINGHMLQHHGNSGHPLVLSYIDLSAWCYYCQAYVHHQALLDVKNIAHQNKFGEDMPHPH
The experiment can be described thus: HDAC6 enzyme activity inhibition assay (HDAC Fluorimetric Drug Discovery Kit). The format is biochemical. Conditions: for HDAC6 selectivity (fold): HDAC6 over HDAC1; for IC50: human recombinant HDAC6, same protocol as HDAC1, read-out: HDAC6. In short, it runs like this:
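Fluorimetric deacetylase assay: 5-fold serial compound dilutions, 0.3 μg recombinant human enzyme (HDAC1 or HDAC6, same protocol), 10 μM Fluor de Lys-SIRT1 substrate, 60 min at 30 °C. Signal developed 30 min, measured at 360/460 nm; IC50 values derived.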

For the molecule `CC(C)c1nc2ccc(N(Cc3ccc(-c4nnc(C(F)F)o4)cc3F)C(=O)N3CCS(=O)(=O)CC3)cc2s1` [Compound 21813, N-(4-(5-(Difluoromethyl)-1,3,4-oxadiazol-2-yl)-2-fluorobenzyl)-N-(2-isopropylbenzo[d]thiazol-6-yl)thiomorpholine-4-carboxamide 1,1-dioxide], the “HDAC6 selectivity (fold)” value stood at 30 fold and the IC50 was 330 nM.

On to `O=C(N1CCOCC1)N(Cc1ccc(-c2nnc(C(F)F)o2)cc1F)c1ccc(F)cc1` [Compound 21841, N-(4-(5-(difluoromethyl)-1,3,4-oxadiazol-2-yl)-2-fluorobenzyl)-N-(4-fluorophenyl)morpholine-4-carboxamide], for which the “HDAC6 selectivity (fold)” value is listed as 382 fold and the IC50 amounted to 26 nM.

Turning to `O=C(N1CCOCC1)N(Cc1ccc(-c2nnc(C(F)F)o2)cn1)c1cccc(F)c1` [Compound 21843, N-((5-(5-(difluoromethyl)-1,3,4-oxadiazol-2-yl)pyridin-2-yl)methyl)-N-(3-fluorophenyl) morpholine-4-carboxamide], the “HDAC6 selectivity (fold)” value was found to be 461 fold and the IC50 was determined as 22 nM.

For the molecule `O=C(N1CCOCC1)N(Cc1ccc(-c2nnc(C(F)F)o2)cc1F)c1ccc(Cl)cc1` [Compound 21849, N-(4-chlorophenyl)-N-(4-(5-(difluoromethyl)-1,3,4-oxadiazol-2-yl)-2-fluorobenzyl)morpholine-4-carboxamide], the “HDAC6 selectivity (fold)” value stood at 95 fold and the IC50 was found to be 106 nM.

For `O=C(N1CCOCC1)N(Cc1ccc(-c2nnc(C(F)F)o2)cn1)c1cccc(Cl)c1` [Compound 21851, N-(3-chlorophenyl)-N-((5-(5-(difluoromethyl)-1,3,4-oxadiazol-2-yl)pyridin-2-yl)methyl) morpholine-4-carboxamide], the “HDAC6 selectivity (fold)” value was 407 fold and the IC50 was 25 nM.

`Cc1ccc(N(Cc2ccc(-c3nnc(C(F)F)o3)cn2)C(=O)N2CCOCC2)c(F)c1` [Compound 21855, N-((5-(5-(difluoromethyl)-1,3,4-oxadiazol-2-yl)pyridin-2-yl)methyl)-N-(2-fluoro-4-methylphenyl)morpholine-4-carboxamide]: the “HDAC6 selectivity (fold)” value is on record as 248 fold and the IC50 worked out at 40 nM.

Consider `Cc1ccc(N(Cc2ccc(-c3nnc(C(F)F)o3)cc2F)C(=O)N2CCOCC2)c(F)c1` [Compound 21856, N-(4-(5-(difluoromethyl)-1,3,4-oxadiazol-2-yl)-2-fluorobenzyl)-N-(2-fluoro-4-methylphenyl)morpholine-4-carboxamide], for which the “HDAC6 selectivity (fold)” value stood at 105 fold and the IC50 came out at 95 nM.

In the case of `CCN1CCN(C(=O)N(Cc2ccc(-c3nnc(C(F)F)o3)cc2F)c2ccc(Cl)cc2)CC1` [Compound 21881, N-(4-Chlorophenyl)-N-(4-(5-(difluoromethyl)-1,3,4-oxadiazol-2-yl)-2-fluorobenzyl)-4-ethylpiperazine-1-carboxamide], the “HDAC6 selectivity (fold)” value is given as 204 fold and the IC50 was 49 nM.

Consider `CCN1CCN(C(=O)N(Cc2ccc(-c3nnc(C(F)F)o3)cn2)c2ccc(Cl)cc2)CC1` [Compound 21882, N-(4-Chlorophenyl)-N-((5-(5-(difluoromethyl)-1,3,4-oxadiazol-2-yl)pyridin-2-yl)methyl)-4-ethylpiperazine-1-carboxamide], for which the “HDAC6 selectivity (fold)” value worked out at 251 fold and the IC50 is 40 nM.

In the case of `CCN1CCN(C(=O)N(Cc2ccc(-c3nnc(C(F)F)o3)cc2)c2cccc(F)c2)CC1` [Compound 21883, N-(4-(5-(Difluoromethyl)-1,3,4-oxadiazol-2-yl)benzyl)-4-ethyl-N-(3-fluorophenyl)piperazine-1-carboxamide], the “HDAC6 selectivity (fold)” value is 268 fold and the IC50 is 37 nM.

Regarding `CCN1CCN(C(=O)N(Cc2ccc(-c3nnc(C(F)F)o3)cc2F)c2cccc(F)c2)CC1` [Compound 21884, N-(4-(5-(Difluoromethyl)-1,3,4-oxadiazol-2-yl)-2-fluorobenzyl)-4-ethyl-N-(3-fluorophenyl)piperazine-1-carboxamide], the “HDAC6 selectivity (fold)” value is 303 fold and the IC50 came out at 33 nM.

On to `CCN1CCN(C(=O)N(Cc2ccc(-c3nnc(C(F)F)o3)cn2)c2cccc(F)c2)CC1` [Compound 21885, N-((5-(5-(Difluoromethyl)-1,3,4-oxadiazol-2-yl)pyridin-2-yl)methyl)-4-ethyl-N-(3-fluorophenyl)piperazine-1-carboxamide], for which the “HDAC6 selectivity (fold)” value turned out to be 555 fold and the IC50 was 18 nM.

Regarding `CCN1CCN(C(=O)N(Cc2ccc(-c3nnc(C(F)F)o3)cc2)c2ccc(F)cc2)CC1` [Compound 21886, N-(4-(5-(Difluoromethyl)-1,3,4-oxadiazol-2-yl)benzyl)-4-ethyl-N-(4-fluorophenyl)piperazine-1-carboxamide], the “HDAC6 selectivity (fold)” value stood at 218 fold and the IC50 stood at 46 nM.

As for `CCN1CCN(C(=O)N(Cc2ccc(-c3nnc(C(F)F)o3)cc2F)c2ccc(F)cc2)CC1` [Compound 21887, N-(4-(5-(Difluoromethyl)-1,3,4-oxadiazol-2-yl)-2-fluorobenzyl)-4-ethyl-N-(4-fluorophenyl)piperazine-1-carboxamide], the “HDAC6 selectivity (fold)” value is listed as 218 fold and the IC50 came out at 46 nM.

As for `CCN1CCN(C(=O)N(Cc2ccc(-c3nnc(C(F)F)o3)cn2)c2ccc(F)cc2)CC1` [Compound 21888, N-((5-(5-(Difluoromethyl)-1,3,4-oxadiazol-2-yl)pyridin-2-yl)methyl)-4-ethyl-N-(4-fluorophenyl)piperazine-1-carboxamide], the “HDAC6 selectivity (fold)” value was determined as 388 fold and the IC50 was 26 nM.

For `CCN1CCN(C(=O)N(Cc2ccc(-c3nnc(C(F)F)o3)cc2)c2cccc(OC)c2)CC1` [Compound 21889, N-(4-(5-(Difluoromethyl)-1,3,4-oxadiazol-2-yl)benzyl)-4-ethyl-N-(3-methoxyphenyl)piperazine-1-carboxamide], the “HDAC6 selectivity (fold)” value came to 103 fold and the IC50 turned out to be 98 nM.

Consider `CCN1CCN(C(=O)N(Cc2ccc(-c3nnc(C(F)F)o3)cc2F)c2cccc(OC)c2)CC1` [Compound 21890, N-(4-(5-(Difluoromethyl)-1,3,4-oxadiazol-2-yl)-2-fluorobenzyl)-4-ethyl-N-(3-methoxyphenyl)piperazine-1-carboxamide], for which the “HDAC6 selectivity (fold)” value turned out to be 185 fold and the IC50 is 54 nM.

Consider `CCN1CCN(C(=O)N(Cc2ccc(-c3nnc(C(F)F)o3)cn2)c2cccc(OC)c2)CC1` [Compound 21891, N-((5-(5-(Difluoromethyl)-1,3,4-oxadiazol-2-yl)pyridin-2-yl)methyl)-4-ethyl-N-(3-methoxyphenyl)piperazine-1-carboxamide], for which the “HDAC6 selectivity (fold)” value was 174 fold and the IC50 is 57 nM.

With `CC(C)(C)CN1CCN(Cc2ccc(N(Cc3ccc(-c4nnc(C(F)F)o4)cc3F)C(=O)N3CCS(=O)(=O)CC3)cc2)CC1` [Compound 21895, N-(4-(5-(difluoromethyl)-1,3,4-oxadiazol-2-yl)-2-fluorobenzyl)-N-(4-((4-neopentylpiperazin-1-yl)methyl)phenyl)thiomorpholine-4-carboxamide 1,1-dioxide], the “HDAC6 selectivity (fold)” value is 42 fold and the IC50 worked out at 236 nM.
